From patent US20190077809A1, “Spirocyclic Derivatives” (BASF SE, priority 2016, published 2019)

What was measured:
Format in all cases: in vivo
Halyomorpha halys = experiment: Brown marmorated stink bug (Halyomorpha halys) sprayed peanut/soybean seed test; details: 120 h, adult stage, sprayed cups with peanuts and soybean seeds, after 5 days, read-out: mortality in comparison with untreated controls
Experimental: The active compound was dissolved at the desired concentration in a mixture of 1:1 (vol:vol) distilled water:acetone. Surfactant (Kinetic HV) was added at a rate of 0.01% (vol/vol). The test solution was prepared at the day of use.
Row peanuts and soybean seeds were placed into microwavable plastic cups and inoculated with five adult stage H. halys. Using a hand atomizer, approximately 1 ml solution is sprayed into each cup, insects and food present. A water source was provided (cotton wick with water). Each treatment is replicated 4-fold. Assay arenas are kept at about 25° C. Percent mortality was recorded after 5 days.

Megoura viciae = experiment: Vetch aphid (Megoura viciae) broad bean leaf disk test; details: foliar, 120 h, adult aphids on sprayed broad bean leaf disks, 5 days, read-out: mortality in comparison with untreated controls
Experimental: For evaluating control of vetch aphid (Megoura viciae) through contact or systemic means the test unit consisted of 24-well-microtiter plates containing broad bean leaf disks.
The compounds were formulated using a solution containing 75% v/v water and 25% v/v DMSO. Different concentrations of formulated compounds were sprayed onto the leaf disks at 2.5 μl, using a custom built micro atomizer, at two replications.
After application, the leaf disks were air-dried and 5- 8 adult aphids placed on the leaf disks inside the microtiter plate wells. The aphids were then allowed to suck on the treated leaf disks and incubated at about 23±1° C. and about 50±5% relative humidity for 5 days. Aphid mortality and fecundity was then visually assessed.

Dichromothrips corbetti = experiment: Orchid thrips (dichromothrips corbetti) floral-immersion test; details: adult thrips on dipped orchid petals, 72 hours after treatment, read-out: mortality in comparison with untreated controls
Experimental: Dichromothrips corbetti adults used for bioassay were obtained from a colony maintained continuously under laboratory conditions. For testing purposes, the test compound is diluted in a 1:1 mixture of acetone:water (vol:vol), plus Kinetic HV ata rate of 0.01% v/v.
Thrips potency of each compound was evaluated by using a floral-immersion technique. All petals of individual, intact orchid flowers were dipped into treatment solution and allowed to dry in Petri dishes. Treated petals were placed into individual re-sealable plastic along with about 20 adult thrips. All test arenas were held under continuous light and a temperature of about 28° C. for duration of the assay. After 3 days, the numbers of live thrips were counted on each petal. The percent mortality was recorded 72 hours after treatment.

Plutella xylostella = experiment: Diamond back moth (Plutella xylostella) cabbage leaf-dip test; details: 3rd instar larvae on dipped cabbage leaves, 72 hours after treatment, read-out: mortality in comparison with untreated controls
Experimental: The active compound was dissolved at the desired concentration in a mixture of 1:1 (vol:vol) distilled water:aceteone. Surfactant (Kinetic HV) was added at a rate of 0.01% (vol/vol).The test solution was prepared at the day of use.
Leaves of cabbage were dipped in test solution and air-dried. Treated leaves were placed in petri dishes lined with moist filter paper and inoculated with ten 3rd instar larvae. Mortality was recorded 72 hours after treatment. Feeding damages were also recorded using a scale of 0-100%.

Anthonomus grandis = experiment: Boll weevil (Anthonomus grandis) insect diet/egg microtiter test; details: 120 h, egg and larval mortality on sprayed insect diet, 5 days, read-out: mortality in comparison with untreated controls
Experimental: For evaluating control of boll weevil (Anthonomus grandis) the test unit consisted of 96-well-microtiter plates containing an insect diet and 5-10 A. grandis eggs.
(§1) The compounds were formulated using a solution containing 75% v/v water and 25% v/v DMSO. Different concentrations of formulated compounds were sprayed onto the insect diet at 5 μl, using a custom built micro atomizer, at two replications.
After application, microtiter plates were incubated at about 25±1° C. and about 75±5% relative humidity for 5 days. Egg and larval mortality was then visually assessed.

Nezara viridula = experiment: Green soldier stink bug (Nezara viridula) sprayed soybean pod test; details: 120 h, late 3rd instar on sprayed soybean pods, after 5 days, read-out: mortality in comparison with untreated controls
Experimental: The active compound was dissolved at the desired concentration in a mixture of 1:1 (vol:vol) distilled water:acetone. Surfactant (Kinetic HV) was added at a rate of 0.01% (vol/vol). The test solution was prepared at the day of use.Soybean pods were placed in glass Petri dishes lined with moist filter paper and inoculated with ten late 3rd instar N. vindula. Using a hand atomizer, approximately 2 ml solution is sprayed into each Petri dish. Assay arenas were kept at about 25° C. Percent mortality was recorded after 5 days.

Myzus persicae = experiment: Green peach aphid (Myzus persicae) systemic test, artificial diet in microtiter plates; details: 72 h, adult aphids on treated artificial diet, 3 days, read-out: mortality in comparison with untreated controls
Text: For evaluating control of green peach aphid (Myzus persicae) through systemic means the test unit consisted of 96-well-microtiter plates containing liquid artificial diet under an artificial membrane.
The compounds were formulated using a solution containing 75% v/v water and 25% v/v DMSO. Different concentrations of formulated compounds were pipetted into the aphid diet, using a custom built pipetter, at two replications.
After application, 5-8 adult aphids were placed on the artificial membrane inside the microtiter plate wells. The aphids were then allowed to suck on the treated aphid diet and incubated at about 23±1 ° C. and about 50±5% relative humidity for 3 days. Aphid mortality and fecundity was then visually assessed.

Heliothis virescens = experiment: Tobacco budworm (Heliothis virescens) insect diet/egg microtiter test; details: 120 h, egg and larval mortality on sprayed insect diet, 5 days, read-out: mortality in comparison with untreated controls
Experimental: For evaluating control of tobacco budworm (Heliothis virescens) the test unit consisted of 96-well-microtiter plates containing an insect diet and 15-25 H. virescens eggs.
The compounds were formulated using a solution containing 75% v/v water and 25% v/v DMSO. Different concentrations of formulated compounds were sprayed onto the insect diet at 10 μl, using a custom built micro atomizer, at two replications.
After application, microtiter plates were incubated at about 28+1° C. and about 80+5% relative humidity for 5 days. Egg and larval mortality was then visually assessed.

Nephotettix virescens = experiment: Rice green leafhopper (Nephotettix virescens) sprayed rice seedling test; details: adults on sprayed rice seedlings, after 72 hours, read-out: mortality in comparison with untreated controls
Experimental: Rice seedlings were cleaned and washed 24 hours before spraying. The active compounds were formulated in 1:1 acetone:water (vol:vol), and 0.01% vol/vol surfactant (Kinetic HV) was added. Potted rice seedlings were sprayed with 5-6 ml test solution, air dried, covered with Mylar cages cages and inoculated with 10 adults. Treated rice plants were kept at about 28-29° C. and relative humidity of about 50-60%. Percent mortality was recorded after 72 hours.

Tetranychus kanzawai = experiment: Red spider mite (Tetranychus kanzawai) sprayed cowpea bean test; details: mites on sprayed cowpea beans, 72 hours after treatment, read-out: mortality in comparison with untreated controls
Experimental: The active compound was dissolved at the desired concentration in a mixture of 1:1 (vol:vol) distilled water:acetone. Add surfactant (Kinetic HV) was added at a rate of 0.01% (vol/vol).The test solution was prepared at the day of use.
Potted cowpea beans of 4-5 days of age were cleaned with tap water and sprayed with 1-2 ml of the test solution using air driven hand atomizer. The treated plants were allowed to air dry and afterwards inoculated with 30 or more mites by clipping a cassava leaf section from rearing population. Treated plants were placed inside a holding room at about 25-27° C. and about 50-60% relative humidity. Percent mortality was assessed 72 hours after treatment.

Spodoptera eridania = experiment: Southern armyworm (Spodoptera eridania) sprayed lima bean foliage test; details: foliar, 96 h, larvae on sprayed lima bean plants, 4 days after treatment, read-out: mortality in comparison with untreated controls
Experimental: The active compounds were formulated in cyclohexanone as a 10,000 ppm solution supplied in tubes. The tubes were inserted into an automated electrostatic sprayer equipped with an atomizing nozzle and they served as stock solutions for which lower dilutions were made in 50% acetone:50% water (v/v). A nonionic surfactant (Kinetic®) was included in the solution at a volume of 0.01% (v/v).
Lima bean plants (variety Sieva) were grown 2 plants to a pot and selected for treatment at the 1st true leaf stage. Test solutions were sprayed onto the foliage by an automated electrostatic plant sprayer equipped with an atomizing spray nozzle. The plants were dried in the sprayer fume hood and then removed from the sprayer. Each pot was placed into perforated plastic bags with a zip closure. About 10 to 11 armyworm larvae were placed into the bag and the bags zipped closed. Test plants were maintained in a growth room at about 25° C. and about 20-40% relative humidity for 4 days, avoiding direct exposure to fluorescent light (24 hour photoperiod) to prevent trapping of heat inside the bags. Mortality and reduced feeding were assessed 4 days after treatment, compared to untreated control plants.

Ceratitis capitata = experiment: Mediterranean fruitfly (Ceratitis capitata) insect diet/egg microtiter test; details: 120 h, egg and larval mortality on sprayed insect diet, 5 days, read-out: mortality in comparison with untreated controls
Experimental: For evaluating control of Mediterranean fruitfly (Ceratitis capitata) the test unit consisted of microtiter plates containing an insect diet and 50-80 C. capitata eggs.
as §1
After application, microtiter plates were incubated at about 28±1° C. and about 80±5% relative humidity for 5 days. Egg and larval mortality was then visually assessed.

CC(=O)N1CC2(C1)OCc1cc(C3=CSC(c4cc(Cl)c(F)c(Cl)c4)(C(F)(F)F)C3)ccc12 (centres unmarked) [Compound I-2-2, 1-[6-[2-(3,5-dichloro-4-fluoro-phenyl)-2-(trifluoromethyl)-3H-thiophen-4-yl]spiro[1H-isobenzofuran-3,3′-azetidine]-1′-yl]ethanone]
≥ 75%: mortality at 100 ppm (Halyomorpha halys) | mortality at 2500 ppm (Megoura viciae) | mortality at 300 ppm (Dichromothrips corbetti) | mortality at 300 ppm (Plutella xylostella) | mortality at 2500 ppm (Anthonomus grandis) | mortality at 300 ppm (Nezara viridula) | mortality at 2500 ppm (Myzus persicae) | mortality at 2500 ppm (Heliothis virescens) | mortality at 300 ppm (Nephotettix virescens) | mortality at 300 ppm (Tetranychus kanzawai) | mortality at 10 ppm (Spodoptera eridania)

CCC(=O)N1CC2(C1)OCc1cc(C3=CCC(c4cc(Cl)c(F)c(Cl)c4)(C(F)(F)F)C3)ccc12 (centres unmarked) [Compound I-1-1, 1-[6-[4-(3,5-dichloro-4-fluoro-phenyl)-4-(trifluoromethyl)cyclopenten-1-yl]spiro[1H-isobenzofuran-3,3′-azetidine]-1′-yl]propan-1-one]
≥ 75%: mortality at 100 ppm (Halyomorpha halys) | mortality at 2500 ppm (Megoura viciae) | mortality at 300 ppm (Dichromothrips corbetti) | mortality at 2500 ppm (Ceratitis capitata) | mortality at 300 ppm (Plutella xylostella) | mortality at 2500 ppm (Anthonomus grandis) | mortality at 300 ppm (Nezara viridula) | mortality at 2500 ppm (Myzus persicae) | mortality at 2500 ppm (Heliothis virescens) | mortality at 300 ppm (Nephotettix virescens) | mortality at 300 ppm (Tetranychus kanzawai) | mortality at 10 ppm (Spodoptera eridania)
